Assays:
Assay in all cases: relative viability (nuclei count vs DMSO), 5 days (fraction); higher = more cells survive
RU-SKI 43 + Linsitinib = compound: CC[C@@H](C)CNCC(=O)N1CCC2=C([C@@H]1COC3=CC=CC(=C3)C)C=CS2 [RU-SKI 43] + C[C@]1(O)C[C@@H](c2nc(-c3ccc4ccc(-c5ccccc5)nc4c3)c3c(N)nccn32)C1 [Linsitinib] (partner 1 µM)
In short: (§1)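 Lung cancer cell lines were pin-tool dosed in 1536-well plates on the day after seeding, with either a lone drug or a fixed anchor-drug dose plus five library-drug doses (not always all listed) in √10 steps. Nuclei were counted on 4× images after 5 days. Relative viability is the ratio of treated-well to vehicle-well nuclei counts, with each value a median of duplicate plates.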

Irinotecan + Navitoclax = compound: CCc1c2c(nc3ccc(OC(=O)N4CCC(N5CCCCC5)CC4)cc13)-c1cc3c(c(=O)n1C2)COC(=O)[C@]3(O)CC [Irinotecan] + CC1(C)CCC(c2ccc(Cl)cc2)=C(CN2CCN(c3ccc(C(=O)NS(=O)(=O)c4ccc(N[C@H](CCN5CCOCC5)CSc5ccccc5)c(S(=O)(=O)C(F)(F)F)c4)cc3)CC2)C1 [Navitoclax] (partner 0.5 µM)
In short: as §1

MK-8033 + Foretinib = compound: Cn1cc(-c2cnc3ccc4ccc(CS(=O)(=O)NCc5ccccn5)cc4c(=O)c3c2)cn1 [MK-8033] + COc1cc2c(Oc3ccc(NC(=O)C4(C(=O)Nc5ccc(F)cc5)CC4)cc3F)ccnc2cc1OCCCN1CCOCC1 [Foretinib] (partner 0.25 µM)
In short: as §1

MK-8033 + Alpelisib = compound: Cn1cc(-c2cnc3ccc4ccc(CS(=O)(=O)NCc5ccccn5)cc4c(=O)c3c2)cn1 [MK-8033] + Cc1nc(NC(=O)N2CCC[C@H]2C(N)=O)sc1-c1ccnc(C(C)(C)C(F)(F)F)c1 [Alpelisib] (partner 2 µM)
In short: as §1

| Cell Line | relative viability (RU-SKI 43 + Linsitinib; first compound 0.1 µM) | relative viability (RU-SKI 43 + Linsitinib; first compound 0.3162 µM) | relative viability (RU-SKI 43 + Linsitinib; first compound 1 µM) | relative viability (RU-SKI 43 + Linsitinib; first compound 3.162 µM) | relative viability (RU-SKI 43 + Linsitinib; first compound 10 µM) | relative viability (Irinotecan + Navitoclax; first compound 2 µM) | relative viability (Irinotecan + Navitoclax; first compound 6.325 µM) | relative viability (Irinotecan + Navitoclax; first compound 20 µM) | relative viability (MK-8033 + Foretinib; first compound 0.02 µM) | relative viability (MK-8033 + Foretinib; first compound 0.06325 µM) | relative viability (MK-8033 + Foretinib; first compound 0.2 µM) | relative viability (MK-8033 + Foretinib; first compound 0.6325 µM) | relative viability (MK-8033 + Foretinib; first compound 2 µM) | relative viability (MK-8033 + Alpelisib; first compound 0.02 µM) | relative viability (MK-8033 + Alpelisib; first compound 0.06325 µM) | relative viability (MK-8033 + Alpelisib; first compound 0.2 µM) | relative viability (MK-8033 + Alpelisib; first compound 0.6325 µM) | relative viability (MK-8033 + Alpelisib; first compound 2 µM) | relative viability (Irinotecan + Navitoclax; first compound 0.6325 µM) |
| --- | --- | --- | --- | --- | --- | --- | --- | --- | --- | --- | --- | --- | --- | --- | --- | --- | --- | --- | --- |
| 201T | 1.07 | 1.02 | 1.07 | 1.17 | 1.03 | 1.12 | 0.729 | 0.451 | 1.06 | 1.05 | 1.13 | 1.19 | 1.1 | 1.11 | 0.946 | 0.976 | 1.05 | 1.04 | – |
| RERF-LC-KJ | 0.946 | 1.04 | 0.915 | 0.943 | 0.895 | 1.18 | 0.52 | 0.504 | 0.869 | 0.854 | 0.829 | 0.928 | 0.875 | 0.735 | 0.76 | 0.698 | 0.777 | 0.774 | 0.936 |
| A549 | 0.73 | 0.762 | 0.656 | 0.596 | 0.613 | 0.639 | 0.118 | 0.0499 | 0.962 | 0.853 | 0.892 | 0.985 | 0.945 | 0.692 | 0.685 | 0.83 | 0.456 | 0.651 | 0.997 |
| NCI-H1651 | 1.08 | 1.34 | 1.09 | 0.959 | 0.908 | 0.544 | 0.199 | 0.168 | 0.844 | 0.637 | 0.879 | 0.692 | 0.648 | 0.888 | 0.808 | 0.931 | 0.898 | 0.982 | 0.763 |
| NCI-H2405 | 0.866 | 0.941 | 0.732 | 0.857 | 0.808 | 0.697 | 0.212 | 0.091 | 1.01 | 1.02 | 0.988 | 1.09 | 1.04 | 0.732 | 0.731 | 0.699 | 0.765 | 0.736 | – |
| NCI-H727 | 0.31 | 0.244 | 0.335 | 0.223 | 0.242 | 0.358 | 0.319 | 0.308 | 0.817 | – | 0.859 | 0.685 | 1.06 | 0.502 | 0.615 | 0.589 | 0.577 | 0.589 | 0.225 |
| EMC-BAC-2 | 0.811 | 0.982 | 0.895 | 0.838 | 0.851 | 0.36 | 0.202 | 0.226 | 0.899 | 0.942 | 0.936 | 1.05 | 0.971 | 0.666 | 0.709 | 0.743 | 0.713 | 0.68 | 0.705 |
| LXF-289 | 0.982 | 1.01 | 0.96 | 0.983 | 0.956 | 0.439 | 0.153 | 0.175 | 0.965 | 0.934 | 0.938 | 1.04 | 0.965 | 1.08 | 0.984 | 0.976 | 0.994 | 0.998 | 0.891 |
| HCC-827 | 0.96 | 0.936 | 1.04 | 1.02 | 0.734 | 0.278 | 0.244 | 0.237 | 1.1 | – | 0.989 | 0.967 | 1.03 | 1.01 | – | 1.07 | 0.908 | 0.91 | 0.591 |
| NCI-H2023 | 0.597 | 0.748 | 0.661 | 0.675 | 0.697 | 0.812 | 0.277 | 0.103 | 0.822 | 0.786 | 0.701 | 0.948 | 0.771 | 0.655 | 0.516 | 0.5 | 0.474 | 0.521 | 1 |
| NCI-H1734 | 0.905 | 0.818 | 0.918 | 0.934 | 0.791 | 0.376 | 0.156 | 0.188 | 0.829 | 0.665 | 0.78 | 0.861 | 0.856 | 0.628 | 0.57 | 0.644 | 0.654 | 0.72 | 0.618 |
| PC-14 | 0.962 | 1 | 1.05 | 1.07 | 0.939 | 0.876 | 0.196 | 0.147 | 0.918 | 0.859 | 0.905 | 0.985 | 0.869 | 0.888 | 0.878 | 0.87 | 0.898 | 0.804 | 0.987 |
| NCI-H3122 | 0.992 | 1.05 | 1.09 | 1.12 | 1.08 | 0.235 | 0.226 | 0.209 | 0.962 | 0.958 | 0.93 | 0.908 | 0.974 | 0.817 | 0.755 | 0.777 | 0.853 | 0.859 | 0.723 |
| SW 1573 | 0.884 | 0.824 | 0.841 | 0.692 | 0.688 | 0.601 | 0.139 | 0.156 | 0.93 | 0.759 | 0.841 | 0.918 | 0.995 | 0.817 | – | 0.698 | 0.687 | 0.719 | 0.694 |
| HCC-15 | 0.964 | 1.1 | 0.988 | 0.946 | 0.882 | 0.209 | 0.147 | 0.167 | 0.977 | 0.919 | 0.994 | 1.04 | 1.02 | 0.847 | 0.947 | 0.863 | 0.841 | 0.875 | 0.5 |
| NCI-H1666 | 0.854 | 0.916 | 0.8 | 0.714 | 0.568 | 0.643 | 0.401 | 0.326 | 1.02 | 0.842 | 0.911 | 0.953 | 1.01 | 0.937 | 1.01 | 0.874 | 0.998 | 0.942 | 0.695 |

From the supplement of paper PMC10307832
